Key:
Details in all cases: stereoisomer not certain
[1] = RP, Waters ACQUITY UPLC BEH C18, 100 × 2.1 mm, 1.7 µm, 0.1 mL/min, estimated dead time 2.2 min; A: water + 0.045% formic acid + 0.11% ammonium hydroxide, pH 7; B: methanol; gradient (min/%B) 0/5 5/5 25/95 25.1/100 35/100 35.1/5 45/5
[2] = RP, Waters CORTECS T3, 100 × 2.1 mm, 2.7 µm, 0.3 mL/min, estimated dead time 0.73 min; A: water + 0.1% formic acid, pH 3; B: methanol + 0.1% formic acid, pH 3; gradient (min/%B) 0/0 5/0 25/100 30/100 30.1/0 35/0
[3] = RP, Waters ACQUITY UPLC BEH C18, 100 × 2.1 mm, 1.7 µm, 0.2 mL/min, estimated dead time 1.1 min; A: water + 0.025% formic acid + 20 mM ammonium acetate + 0.055% ammonium hydroxide, pH 7; B: methanol; gradient (min/%B) 0/5 5/5 25/100 30/100 30.1/5 35/5
[4] = RP, Waters CORTECS T3, 100 × 2.1 mm, 2.7 µm, 0.2 mL/min, estimated dead time 1.1 min; A: water + 0.045% formic acid + 0.11% ammonium hydroxide, pH 7; B: methanol; gradient (min/%B) 0/5 5/5 25/95 25.1/100 35/100 35.1/5 45/5
[5] = RP, Waters CORTECS T3, 100 × 2.1 mm, 2.7 µm, 0.3 mL/min, estimated dead time 0.73 min; A: water + 0.1% formic acid, pH 3; B: methanol + 0.1% formic acid, pH 3; gradient (min/%B) 0/0 1/0 6/5 30/100 35/100 35.1/0 40/0
[6] = RP, Waters ACQUITY UPLC BEH C18, 100 × 2.1 mm, 1.7 µm, 0.1 mL/min, estimated dead time 2.2 min; A: water + 0.1% formic acid, pH 3; B: methanol + 0.1% formic acid, pH 3; gradient (min/%B) 0/5 5/5 25/95 25.1/100 35/100 35.1/5 45/5
[7] = RP, Waters CORTECS T3, 100 × 2.1 mm, 2.7 µm, 0.3 mL/min, estimated dead time 0.73 min; A: water + 0.1% formic acid, pH 3; B: methanol + 0.1% formic acid, pH 3; gradient (min/%B) 0/5 5/5 25/95 25.1/100 35/100 35.1/5 45/5
[8] = RP, Waters CORTECS T3, 100 × 2.1 mm, 2.7 µm, 0.25 mL/min, estimated dead time 0.88 min; A: water + 0.1% formic acid, pH 3; B: methanol + 0.1% formic acid, pH 3; gradient (min/%B) 0/0 1/0 6/5 30/100 35/100 35.1/0 40/0
[9] = RP, Waters CORTECS T3, 100 × 2.1 mm, 2.7 µm, 0.1 mL/min, estimated dead time 2.2 min; A: water + 0.1% formic acid, pH 3; B: methanol + 0.1% formic acid, pH 3; gradient (min/%B) 0/5 5/5 25/95 25.1/100 35/100 35.1/5 45/5
[10] = RP, Waters ACQUITY UPLC BEH C18, 100 × 2.1 mm, 1.7 µm, 0.1 mL/min, estimated dead time 2.2 min; A: water + 0.1% formic acid, pH 3; B: methanol + 0.1% formic acid, pH 3; gradient (min/%B) 0/5 5/5 25/95 25.1/100 35/100 35.1/5 45/5; remark: listed apart in the source
[11] = RP, Waters CORTECS T3, 100 × 2.1 mm, 2.7 µm, 0.15 mL/min, estimated dead time 1.5 min; A: water + 0.1% formic acid, pH 3; B: methanol + 0.1% formic acid, pH 3; gradient (min/%B) 0/0 1/0 6/5 30/100 35/100 35.1/0 40/0
[12] = RP, Waters CORTECS T3, 100 × 2.1 mm, 2.7 µm, 0.2 mL/min, estimated dead time 1.1 min; A: water + 0.1% formic acid, pH 3; B: methanol + 0.1% formic acid, pH 3; gradient (min/%B) 0/0 1/0 6/5 30/100 35/100 35.1/0 40/0
[13] = RP, Waters CORTECS T3, 100 × 2.1 mm, 2.7 µm, 0.1 mL/min, estimated dead time 2.2 min; A: water + 0.1% formic acid, pH 3; B: methanol + 0.1% formic acid, pH 3; gradient (min/%B) 0/0 1/0 6/5 30/100 35/100 35.1/0 40/0
[14] = RP, Waters ACQUITY UPLC BEH C18, 100 × 2.1 mm, 1.7 µm, 0.1 mL/min, estimated dead time 2.2 min; A: water + 0.1% formic acid, pH 3; B: methanol + 0.1% formic acid, pH 3; gradient (min/%B) 0/5 5/5 25/100 30/100 30.1/5 35/5
[15] = RP, Waters CORTECS T3, 100 × 2.1 mm, 2.7 µm, 0.3 mL/min, estimated dead time 0.73 min; A: water + 0.1% formic acid, pH 3; B: methanol + 0.1% formic acid, pH 3; gradient (min/%B) 0/5 5/5 25/100 30/100 30.1/5 35/5
[16] = RP, Thermo Scientific Hypercarb, 150 × 2.1 mm, 5 µm, 0.1 mL/min, estimated dead time 3.3 min; A: water + 0.1% formic acid, pH 3; B: methanol + 0.1% formic acid, pH 3; gradient (min/%B) 0/5 5/5 20/100 35/100 35.1/5 45/5
[17] = HILIC, Merck SeQuant ZIC-HILIC, 150 × 2.1 mm, 5 µm, 0.75 mL/min, estimated dead time 0.44 min; A: water + 10 mM ammonium formate, pH 6; B: 5% water + 95% acetonitrile + 10 mM ammonium formate, pH 6; gradient (min/%B) 0/95 5/95 20/57 25/57 30/95 40/95
[18] = RP, Waters CORTECS T3, 100 × 2.1 mm, 2.7 µm, 0.3 mL/min, estimated dead time 0.73 min; A: water + 0.1% formic acid, pH 3; B: methanol + 0.1% formic acid, pH 3; gradient (min/%B) 0/0 5/0 25/100 30/100 30.1/0 35/0; remark: listed apart in the source
[19] = RP, Waters CORTECS T3, 100 × 2.1 mm, 2.7 µm, 0.3 mL/min, estimated dead time 0.73 min; A: water + 0.1% formic acid, pH 3; B: methanol + 0.1% formic acid, pH 3; gradient (min/%B) 0/0 1/0 6/5 30/100 35/100 35.1/0 40/0; remark: listed apart in the source
[20] = RP, Waters CORTECS T3, 100 × 2.1 mm, 2.7 µm, 0.2 mL/min, estimated dead time 1.1 min; A: water + 0.1% formic acid, pH 3; B: methanol + 0.1% formic acid, pH 3; gradient (min/%B) 0/0 1/0 6/5 30/100 35/100 35.1/0 40/0; remark: listed apart in the source
[21] = RP, Waters ACQUITY UPLC BEH C18, 100 × 2.1 mm, 1.7 µm, 0.2 mL/min, estimated dead time 1.1 min; A: water + 0.025% formic acid + 20 mM ammonium acetate + 0.055% ammonium hydroxide, pH 7; B: methanol; gradient (min/%B) 0/5 5/5 25/100 30/100 30.1/5 35/5; remark: listed apart in the source
[22] = RP, Waters CORTECS T3, 100 × 2.1 mm, 2.7 µm, 0.15 mL/min, estimated dead time 1.5 min; A: water + 0.1% formic acid, pH 3; B: methanol + 0.1% formic acid, pH 3; gradient (min/%B) 0/5 5/5 25/95 25.1/100 35/100 35.1/5 45/5
[23] = RP, Waters CORTECS T3, 100 × 2.1 mm, 2.7 µm, 0.25 mL/min, estimated dead time 0.88 min; A: water + 0.1% formic acid, pH 3; B: methanol + 0.1% formic acid, pH 3; gradient (min/%B) 0/5 5/5 25/95 25.1/100 35/100 35.1/5 45/5
[24] = RP, Waters ACQUITY UPLC BEH C18, 100 × 2.1 mm, 1.7 µm, 0.1 mL/min, estimated dead time 2.2 min; A: water + 0.1% formic acid, pH 3; B: methanol + 0.1% formic acid, pH 3; gradient (min/%B) 0/5 5/5 25/95 25.1/100 35/100 35.1/5 45/5; remark: listed apart in the source
[25] = HILIC, Merck SeQuant ZIC-HILIC, 150 × 2.1 mm, 5 µm, 0.75 mL/min, estimated dead time 0.44 min; A: water + 0.1% acetic acid + 10 mM ammonium acetate, pH 4; B: 5% water + 95% acetonitrile + 0.1% acetic acid + 10 mM ammonium acetate, pH 4; gradient (min/%B) 0/95 5/95 20/57 25/57 30/95 40/95
[26] = RP, Waters ACQUITY UPLC BEH C18, 100 × 2.1 mm, 1.7 µm, 0.2 mL/min, estimated dead time 1.1 min; A: water + 0.1% formic acid, pH 3; B: methanol + 0.1% formic acid, pH 3; gradient (min/%B) 0/5 5/5 25/100 30/100 30.1/5 35/5

LC retention time [1] [min]	LC retention time [2] [min]	LC retention time [3] [min]	LC retention time [4] [min]	LC retention time [5] [min]	LC retention time [6] [min]	LC retention time [7] [min]	LC retention time [8] [min]	LC retention time [9] [min]	LC retention time [10] [min]	LC retention time [11] [min]	LC retention time [12] [min]	LC retention time [13] [min]	LC retention time [14] [min]	LC retention time [15] [min]	SMILES	other results
					2.66	2.38	5.85	2.71	2.66	9.27	6.86	3.48	2.74	2.45	Nc1nc2nc[nH]c2c(=O)[nH]1 [GUANINE]	
29.1	22.4			26.1	28.1	23	26.6	26.6	27.9	28.2	27.4	24.1	26.4	22.2	CCCCCCCCCCCCCCCC(O)C(N)CO (stereo not given) [SPHINGANINE]	

Continued, molecule first:

SMILES	LC retention time [1] [min]	LC retention time [2] [min]	LC retention time [3] [min]	LC retention time [4] [min]	LC retention time [5] [min]	LC retention time [6] [min]	LC retention time [7] [min]	LC retention time [8] [min]	LC retention time [9] [min]	LC retention time [10] [min]	LC retention time [11] [min]	LC retention time [12] [min]	LC retention time [13] [min]	LC retention time [14] [min]	LC retention time [15] [min]	other results
Cn1c(=O)c2c(ncn2C)n(C)c1=O [CAFFEINE]	14.6	11.1	11.3	11.6	11.7	14.6	10.2	12.2	14.7	14.6	14.2	13	11.5	14.4	10.1	
O=C(O)CCCCC1SCC2NC(=O)NC21 (stereo not given) [BIOTIN]		11.7	6.2	1.35		15.5			15.3		14.9		12.1	15.2	10.7	LC retention time [16]: 30.7 min; LC retention time [17]: 7.34 min; LC retention time [18]: 11.7 min; LC retention time [19]: 12.3 min; LC retention time [20]: 13.7 min; LC retention time [21]: 3.98 min; LC retention time [22]: 13.3 min; LC retention time [23]: 11.4 min; LC retention time [24]: 15.5 min; LC retention time [25]: 8.19 min; LC retention time [26]: 12.1 min
NC(Cc1ccc(Oc2cc(I)c(O)c(I)c2)c(I)c1)C(=O)O (stereo not given) [3,3',5'-TRIIODOTHYRONINE]		17.9			20.2	22.2	17.9	20.8	21.8	22.2	22.5	21.4	19.1	21.6	17.3	
C=CC1=C(C)C(C=c2[nH]c(=Cc3[nH]c(C=C4NC(=O)C(C)=C4C=C)c(C)c3CCC(=O)O)c(CCC(=O)O)c2C)=NC1=O [BILIVERDIN]	23.4		19.9	20.9	22.6	23.5	19.9	22.9	23.8	23.5	24.7	23.5	21	22.8		
O=C(O)c1ccc(=O)[nH]c1 [6-HYDROXYNICOTINATE]		3.6			3.45	6.29	2.17	4.17	6.46	2.75	6.98	5.13	3.28	6.36	2.27	

— the RepoRT retention time repository (doi:10.1016/j.jchromb.2020.122105)
